Measurements as given in patent US6156700A, “3-(1,2-Benzisothiazol- and isoxazol-5-yl)-2,4(1H,3H)-pyrimidinedione or thione and 3-(1,2-benzisothiazol- and isoxazol-5-yl)-4(3H)-pyrimidinone or thione herbicidal agents” (American Cyanmid Company, priority 1998, dated 2000).

Experiments:
[1] = tested on: Soybean, Williams, Glycine max; test: Postemergence herbicidal evaluation, GLXMAW; format: in vivo, (L.) Merr. cv Williams
In short: (§1)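 Rates of about 0.0157–0.500 kg/ha were delivered through a 40 psi spray nozzle to seedlings grown around two weeks, using a 50/50 acetone/water vehicle with 0.5% TWEEN 20. A 0–9 visual score versus control followed 4–5 weeks later.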

[2] = tested on: Lambsquarters, Common, Chenopodium album; test: Postemergence herbicidal evaluation, CHEAL; format: in vivo, L.
In short: as §1

[3] = tested on: Morningglory, Ivyleaf, Ipomoea hederacea; test: Preemergence herbicidal evaluation, IPOHE; format: in vivo, (L.) Jacq.; settings: 0.2500 kg/ha
Description: (§2) Results of herbicide evaluation are expressed on a rating scale (0-9). The scale is based upon a visual observation of plant stand, vigor, malformation, size, chlorosis and overall plant appearance as compared with a control.
(§3) The preemergence herbicidal activity of the test compounds of the present invention is exemplified by the following tests in which the seeds of a variety of monocotyledonous and dicotyledonous plants are separately mixed with potting soil and planted on top of approximately one inch of soil in separate pint cups. After planting, the cups are sprayed with the selected aqueous acetone solution containing test compound in sufficient quantity to provide the equivalent of about 0.0156 to 0.500 kg per hectare of test compound per cup. The treated cups are then placed on greenhouse benches, watered and cared for in accordance with conventional greenhouse procedures. From four to five weeks after treatment, the tests are terminated and each cup is examined and rated according to the rating system provided in Example 185.
(§4) The compounds evaluated are reported by compound number given in Example 185.

Soybean, Glycine max [4] = test: Postemergence herbicidal evaluation, GLXMA; format: in vivo, (L.) Merr.; settings: 0.2500 kg/ha
Protocol: In the tests, seedling plants are grown in jiffy flats for about two weeks. The test compounds are dispersed in 50/50 acetone/water mixtures containing 0.5% TWEEN®20, a polyoxyethylene sorbitan monolaurate surfactant of Atlas Chemical Industries, in sufficient quantities to provide the equivalent of about 0.0157 kg to 0.500 kg per hectare of active compound when applied to the plants through a spray nozzle operating at 40 psi for a predetermined time. After spraying, the plants are placed on greenhouse benches and are cared for in accordance with conventional greenhouse procedures. From four to five weeks after treatment, the seedling plants are examined and rated according to the rating system set forth below. Where more than one test is involved for a given compound, the data are averaged.
as §2

[5] = tested on: Morningglory, Ivyleaf, Ipomoea hederacea; test: Postemergence herbicidal evaluation, IPOHE; format: in vivo, (L.) Jacq.; settings: 0.0630 kg/ha
In short: as §1

[6] = tested on: Soybean, Williams, Glycine max; test: Preemergence herbicidal evaluation, GLXMAW; format: in vivo, (L.) Merr. cv Williams; settings: 0.2500 kg/ha
Description: as §2, §3, §4

GLXMA [7] = test: Preemergence herbicidal evaluation; format: in vivo
Protocol: The preemergence and postemergence herbicidal properties of certain compounds of the present invention are compared with certain compounds disclosed in U.S. Pat. Nos. 5,484,763 and 5,523,278. The evaluations are performed as described in Examples 185 and 186. Data in Tables V and VI are reported by the compound number given in Example 185 for the compounds of this invention or by comparative compound letter for the compounds disclosed in U.S. Pat. Nos. 5,484,763 and 5,523,278.

Soybean, Glycine max [8] = test: Preemergence herbicidal evaluation, GLXMA; format: in vivo, (L.) Merr.; settings: 0.2500 kg/ha
Description: as §2, §3, §4

ORYSAT = test: Preemergence herbicidal evaluation; format: in vivo, Oryza sativa; set-up: scale not given here
GLXMA [9] = test: Postemergence herbicidal evaluation; format: in vivo
TRZAWR [10] = test: Postemergence herbicidal evaluation; format: in vivo
GALAP [11] = test: Postemergence herbicidal evaluation; format: in vivo
AMBEL = test: Preemergence herbicidal evaluation; format: in vivo; set-up: scale not given here
IPOSS = test: Preemergence herbicidal evaluation; format: in vivo; set-up: scale not given here
GALAP [12] = test: Preemergence herbicidal evaluation; format: in vivo; set-up: scale not given here
ECHCG = test: Preemergence herbicidal evaluation; format: in vivo; set-up: scale not given here
TRZAWR [13] = test: Preemergence herbicidal evaluation; format: in vivo; set-up: scale not given here
ABUTH = test: Preemergence herbicidal evaluation; format: in vivo; set-up: scale not given here
ZEAMX = test: Postemergence herbicidal evaluation; format: in vivo
CASOB = test: Postemergence herbicidal evaluation; format: in vivo

SMILES: Cc1cc(O)c(-c2nsc3ccc(-n4c(=O)cc(C(F)(F)F)n(C)c4=O)cc23)cc1C [Compound 11, 3-[3-(6-Hydroxy-3,4-xylyl)-1,2-benzisothiazol-5-yl]-1-methyl-6-(trifluoromethyl)-2,4(1H,3H)-pyrimidinedione]
- herbicide rating (0-9) ([1]; 0.2500 kg/ha): 6.0
- herbicide rating (0-9) ([2]; 0.2500 kg/ha): 9.0

SMILES: COC(=O)C(C)Oc1cc(C)c(C)cc1-c1nsc2ccc(-n3c(=O)cc(C(F)(F)F)n(C)c3=O)cc12 (centres unmarked) [Compound 13, Methyl 2-{{6-{5-[3,6-dihydro-3-methyl-4-(trifluoromethyl)-2,6-dioxo-1(2H)-pyrimidinyl]-1,2-benzisothiazol-3-yl}-3,4-xylyl}oxy}propionate]
- herbicide rating (0-9) ([1]; 0.2500 kg/ha): 8.5
- herbicide rating (0-9) ([2]; 0.2500 kg/ha): 9.0

SMILES: COC(=O)COc1cc(C)ccc1-c1nsc2ccc(-n3c(=O)cc(C(F)(F)F)n(C)c3=O)cc12 [Compound 8, Methyl {{6-{5-[3,6-dihydro-3-methyl-4-(trifluoromethyl)-2,6-dioxo-1(2H)-pyrimidinyl]-1,2-benzisothiazol-3-yl}-m-tolyl}oxy}acetate]
- herbicide rating (0-9) ([1]; 0.2500 kg/ha): 9.0
- herbicide rating (0-9) ([2]; 0.2500 kg/ha): 9.0

SMILES: COc1ccc(C)cc1-c1nsc2ccc(-n3c(=O)cc(C(F)(F)F)n(C)c3=O)cc12 [Compound 1, 3-[3-(6-Methoxy-m-tolyl)-1,2-benzisothiazol-5-yl]-1-methyl-6-(trifluoromethyl)-2,4(1H,3H)-pyrimidinedione]
- herbicide rating (0-9) [3]: 8.0
- herbicide rating (0-9) (Soybean, Glycine max [4]): 9.0
- herbicide rating (0-9) ([1]; 0.0630 kg/ha): 6.0
- herbicide rating (0-9) ([1]; 0.2500 kg/ha): 7.0
- herbicide rating (0-9) [5]: 9.0
- herbicide rating (0-9) ([2]; 0.0630 kg/ha): 9.0
- herbicide rating (0-9) ([2]; 0.2500 kg/ha): 9.0
- herbicide rating (0-9) [6]: 7.5

SMILES: COC(=O)COc1cc(C)c(C)cc1-c1nsc2ccc(-n3c(=O)cc(C(F)(F)F)n(C)c3=O)cc12 [Compound 12, Methyl {{6-{5-[3,6-dihydro-3-methyl-4-(trifluoromethyl)-2,6-dioxo-1(2H)-pyrimidinyl]-1,2-benzisothiazol-3-yl}-3,4-xylyl}oxy}acetate]
- herbicide rating (0-9) ([1]; 0.2500 kg/ha): 9.0
- herbicide rating (0-9) ([2]; 0.2500 kg/ha): 9.0

SMILES: Cn1c(C(F)(F)F)cc(=O)n(-c2ccc3snc(-c4ccccc4)c3c2)c1=O [Compound 4, 1-Methyl-3-(3-phenyl-1,2-benzisothiazol-5-yl)-6-(trifluoromethyl)-2,4(1H,3H)-pyrimidinedione]
- herbicidal effect rating (GLXMA [7]; 0.0313-0.0320 kg/ha): 3.0
- herbicidal effect rating (GLXMA [7]; 0.0620-0.0630 kg/ha): 9.0
- herbicidal effect rating (GLXMA [7]; 0.1250 kg/ha): 9.0
- herbicidal effect rating (GLXMA [7]; 0.2500 kg/ha): 7.0
- herbicidal effect rating (GLXMA [7]; 0.5000 kg/ha): 9.0
- herbicide rating (0-9) (Soybean, Glycine max [8]): 7.0
- herbicidal effect rating (ORYSAT; 0.0313-0.0320 kg/ha): 7.0
- herbicidal effect rating (ORYSAT; 0.0620-0.0630 kg/ha): 7.0
- herbicidal effect rating (ORYSAT; 0.1250 kg/ha): 7.0
- herbicidal effect rating (ORYSAT; 0.2500 kg/ha): 7.0
- herbicidal effect rating (ORYSAT; 0.5000 kg/ha): 7.0
- herbicide rating (0-9) (Soybean, Glycine max [4]): 9.0
- herbicidal effect rating (GLXMA [9]; 0.0157-0.0160 kg/ha): 6.0
- herbicidal effect rating (GLXMA [9]; 0.0313-0.0320 kg/ha): 5.0
- herbicidal effect rating (GLXMA [9]; 0.0625-0.0640 kg/ha): 4.0
- herbicidal effect rating (GLXMA [9]; 0.1250 kg/ha): 7.0
- herbicidal effect rating (GLXMA [9]; 0.2500 kg/ha): 9.0
- herbicidal effect rating (GLXMA [9]; 0.5000 kg/ha): 9.0
- herbicidal effect rating (TRZAWR [10]; 0.0157-0.0160 kg/ha): 2.0
- herbicidal effect rating (TRZAWR [10]; 0.0313-0.0320 kg/ha): 2.0
- herbicidal effect rating (TRZAWR [10]; 0.0625-0.0640 kg/ha): 3.0
- herbicidal effect rating (TRZAWR [10]; 0.1250 kg/ha): 3.0
- herbicidal effect rating (TRZAWR [10]; 0.2500 kg/ha): 3.0
- herbicidal effect rating (TRZAWR [10]; 0.5000 kg/ha): 4.0
- herbicidal effect rating (GALAP [11]; 0.0157-0.0160 kg/ha): 4.0
- herbicidal effect rating (GALAP [11]; 0.0313-0.0320 kg/ha): 9.0
- herbicidal effect rating (GALAP [11]; 0.0625-0.0640 kg/ha): 9.0
- herbicidal effect rating (GALAP [11]; 0.1250 kg/ha): 9.0
- herbicidal effect rating (GALAP [11]; 0.2500 kg/ha): 9.0
- herbicidal effect rating (GALAP [11]; 0.5000 kg/ha): 9.0
- herbicidal effect rating (AMBEL; 0.0313-0.0320 kg/ha): 7.0
- herbicidal effect rating (AMBEL; 0.0620-0.0630 kg/ha): 7.0
- herbicidal effect rating (AMBEL; 0.1250 kg/ha): 9.0
- herbicidal effect rating (AMBEL; 0.2500 kg/ha): 9.0
- herbicidal effect rating (AMBEL; 0.5000 kg/ha): 9.0
- herbicidal effect rating (IPOSS; 0.0313-0.0320 kg/ha): 2.0
- herbicidal effect rating (IPOSS; 0.0620-0.0630 kg/ha): 4.0
- herbicidal effect rating (IPOSS; 0.1250 kg/ha): 7.0
- herbicidal effect rating (IPOSS; 0.2500 kg/ha): 9.0
- herbicidal effect rating (IPOSS; 0.5000 kg/ha): 9.0
- herbicidal effect rating (GALAP [12]; 0.0313-0.0320 kg/ha): 9.0
- herbicidal effect rating (GALAP [12]; 0.0620-0.0630 kg/ha): 9.0
- herbicidal effect rating (GALAP [12]; 0.1250 kg/ha): 6.0
- herbicidal effect rating (GALAP [12]; 0.2500 kg/ha): 9.0
- herbicidal effect rating (GALAP [12]; 0.5000 kg/ha): 9.0
- herbicidal effect rating (ECHCG; 0.0313-0.0320 kg/ha): 9.0
- herbicidal effect rating (ECHCG; 0.0620-0.0630 kg/ha): 9.0
- herbicidal effect rating (ECHCG; 0.1250 kg/ha): 9.0
- herbicidal effect rating (ECHCG; 0.2500 kg/ha): 9.0
- herbicidal effect rating (ECHCG; 0.5000 kg/ha): 9.0
- herbicidal effect rating (TRZAWR [13]; 0.0313-0.0320 kg/ha): 2.0
- herbicidal effect rating (TRZAWR [13]; 0.0620-0.0630 kg/ha): 5.0
- herbicidal effect rating (TRZAWR [13]; 0.1250 kg/ha): 7.0
- herbicidal effect rating (TRZAWR [13]; 0.2500 kg/ha): 7.0
- herbicidal effect rating (TRZAWR [13]; 0.5000 kg/ha): 7.0
- herbicidal effect rating (ABUTH; 0.0313-0.0320 kg/ha): 9.0
- herbicidal effect rating (ABUTH; 0.0620-0.0630 kg/ha): 9.0
- herbicidal effect rating (ABUTH; 0.1250 kg/ha): 9.0
- herbicidal effect rating (ABUTH; 0.2500 kg/ha): 9.0
- herbicidal effect rating (ABUTH; 0.5000 kg/ha): 9.0
- herbicidal effect rating (ZEAMX; 0.0157-0.0160 kg/ha): 2.0
- herbicidal effect rating (ZEAMX; 0.0313-0.0320 kg/ha): 2.0
- herbicidal effect rating (ZEAMX; 0.0625-0.0640 kg/ha): 3.0
- herbicidal effect rating (ZEAMX; 0.1250 kg/ha): 3.0
- herbicidal effect rating (ZEAMX; 0.2500 kg/ha): 3.0
- herbicidal effect rating (ZEAMX; 0.5000 kg/ha): 3.0
- herbicidal effect rating (CASOB; 0.0157-0.0160 kg/ha): 7.0
- herbicidal effect rating (CASOB; 0.0313-0.0320 kg/ha): 7.0
- herbicidal effect rating (CASOB; 0.0625-0.0640 kg/ha): 9.0
- herbicidal effect rating (CASOB; 0.1250 kg/ha): 9.0
- herbicidal effect rating (CASOB; 0.2500 kg/ha): 9.0
- herbicidal effect rating (CASOB; 0.5000 kg/ha): 9.0
- herbicide rating (0-9) ([2]; 0.2500 kg/ha): 9.0

SMILES: CCc1ccc(-c2nsc3ccc(-n4c(=O)cc(C(F)(F)F)n(C)c4=O)cc23)cc1 [Compound 5, 3-[3-(p-Ethylphenyl)-1,2-benzisothiazol-5-yl]-1-methyl-6-(trifluoromethyl)-2,4 (1H,3H)-pyrimidinedione]
- herbicide rating (0-9) (Soybean, Glycine max [8]): 4.0
- herbicide rating (0-9) (Soybean, Glycine max [4]): 7.0
- herbicide rating (0-9) ([2]; 0.2500 kg/ha): 9.0

SMILES: COC(=O)C(C)Oc1cc(C)ccc1-c1nsc2ccc(-n3c(=O)cc(C(F)(F)F)n(C)c3=O)cc12 (centres unmarked) [Compound 9, Methyl 2-{{6-{5-[3,6-dihydro-3-methyl-4-(trifluoromethyl)-2,6-dioxo-1(2H)-pyrimidinyl]-1,2-benzisothiazol-3-yl}-m-tolyl}oxy}propionate]
- herbicide rating (0-9) ([1]; 0.2500 kg/ha): 9.0

SMILES: COc1cc(C)ccc1-c1nsc2ccc(-n3c(=O)cc(C(F)(F)F)n(C)c3=O)cc12 [Compound 7, 3-[3-(2-Methoxy-p-tolyl)-1,2-benzisothiazol-5-yl]-1-methyl-6-(trifluoromethyl)-2,4(1H,3H)-pyrimidinedione]
- herbicide rating (0-9) ([1]; 0.2500 kg/ha): 9.0
- herbicide rating (0-9) ([2]; 0.2500 kg/ha): 9.0
